Assay results taken from patent US7601716B2, “Pyridopyrazines and derivatives thereof as ALK and c-Met inhibitors” (Cephalon, Inc., priority 2006, dated 2009).
Where a name gives a salt, the structure may show the parent alone.

Assays:
[1] = target: T1, c-Met (cytoplasmic domain) (Homo sapiens, UniProt P08581); experiment: c-Met Kinase Assay (ELISA/TRF, PLC-γ substrate); type: biochemical; settings: 3 μM ATP (Km level); read-out: c-Met Kinase Inhibition (IC50)
T1 construct: Reactions were initiated with 30 ng/mL c-Met (cytoplasmic domain, Invitrogen Corporation #PV3143); purchased Invitrogen Corporation PV3143
T1 sequence (P08581 956-1390 limits assumed): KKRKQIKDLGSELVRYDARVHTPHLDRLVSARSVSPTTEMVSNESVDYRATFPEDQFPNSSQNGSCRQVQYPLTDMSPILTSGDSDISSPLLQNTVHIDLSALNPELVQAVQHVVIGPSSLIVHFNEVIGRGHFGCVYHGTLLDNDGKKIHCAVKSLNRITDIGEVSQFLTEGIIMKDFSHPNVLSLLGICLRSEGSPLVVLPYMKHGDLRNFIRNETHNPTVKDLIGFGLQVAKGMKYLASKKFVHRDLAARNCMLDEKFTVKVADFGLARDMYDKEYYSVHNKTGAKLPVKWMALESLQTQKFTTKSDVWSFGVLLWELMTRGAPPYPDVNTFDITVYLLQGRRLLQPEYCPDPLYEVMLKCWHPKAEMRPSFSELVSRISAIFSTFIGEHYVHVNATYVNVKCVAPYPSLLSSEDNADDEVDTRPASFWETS
Method: Example compounds were tested for their ability to inhibit the kinase activity of baculovirus-expressed ALK using a modification of the ELISA protocol reported for trkA in Angeles, T. S. et al., Anal. Biochem. 1996, 236, 49-55, which is incorporated herein by reference in its entirety. Phosphorylation of the substrate, phospholipase C-gamma (PLC-γ) generated as a fusion protein with glutathione S-transferase (GST) as reported in Rotin, D. et al., EMBO J. 1992, 11, 559-567, which is incorporated herein by reference in its entirety, was detected with a europium-labeled anti-phosphotyrosine antibody and measured by time-resolved fluorescence (TRF). Briefly, each 96-well plate was coated with 100 μL/well of 10 μg/mL substrate (phospholipase C-γ) in Tris-buffered saline (TBS). […] The reaction was initiated by adding enzyme (30 ng/ml ALK) and was allowed to proceed at 37° C. for 15 minutes. Detection of the phosphorylated product was performed by adding 100 μl/well of Eu-N1 labeled PT66 antibody (Perkin Elmer # AD0041). Incubation at 37° C. then proceeded for one (1) hour, followed by addition of 100 μL enhancement solution (Wallac #1244-105). The plate was gently agitated and after thirty minutes, the fluorescence of the resulting solution was measured using the EnVision 2100 (or 2102) multilabel plate reader (Perkin Elmer).
Data analysis was performed using ActivityBase (IDBS, Guilford, UK). IC50 values were calculated by plotting percent inhibition versus log10 of the concentration of compound and fitting to the nonlinear regression sigmoidal dose-response (variable slope) equation in XLFit (IDBS, Guilford, UK).
Reactions were initiated with 30 ng/mL c-Met (cytoplasmic domain, Invitrogen Corporation #PV3143).

[2] = target: baculovirus-expressed ALK (Homo sapiens, UniProt Q9UM73); experiment: ALK Kinase Assay (ELISA/TRF, PLC-γ substrate); type: biochemical; settings: read-out: ALK Kinase Inhibition (IC50); note: 1 µM ATP (Km level)
baculovirus-expressed ALK, sequence (Q9UM73 19-1620): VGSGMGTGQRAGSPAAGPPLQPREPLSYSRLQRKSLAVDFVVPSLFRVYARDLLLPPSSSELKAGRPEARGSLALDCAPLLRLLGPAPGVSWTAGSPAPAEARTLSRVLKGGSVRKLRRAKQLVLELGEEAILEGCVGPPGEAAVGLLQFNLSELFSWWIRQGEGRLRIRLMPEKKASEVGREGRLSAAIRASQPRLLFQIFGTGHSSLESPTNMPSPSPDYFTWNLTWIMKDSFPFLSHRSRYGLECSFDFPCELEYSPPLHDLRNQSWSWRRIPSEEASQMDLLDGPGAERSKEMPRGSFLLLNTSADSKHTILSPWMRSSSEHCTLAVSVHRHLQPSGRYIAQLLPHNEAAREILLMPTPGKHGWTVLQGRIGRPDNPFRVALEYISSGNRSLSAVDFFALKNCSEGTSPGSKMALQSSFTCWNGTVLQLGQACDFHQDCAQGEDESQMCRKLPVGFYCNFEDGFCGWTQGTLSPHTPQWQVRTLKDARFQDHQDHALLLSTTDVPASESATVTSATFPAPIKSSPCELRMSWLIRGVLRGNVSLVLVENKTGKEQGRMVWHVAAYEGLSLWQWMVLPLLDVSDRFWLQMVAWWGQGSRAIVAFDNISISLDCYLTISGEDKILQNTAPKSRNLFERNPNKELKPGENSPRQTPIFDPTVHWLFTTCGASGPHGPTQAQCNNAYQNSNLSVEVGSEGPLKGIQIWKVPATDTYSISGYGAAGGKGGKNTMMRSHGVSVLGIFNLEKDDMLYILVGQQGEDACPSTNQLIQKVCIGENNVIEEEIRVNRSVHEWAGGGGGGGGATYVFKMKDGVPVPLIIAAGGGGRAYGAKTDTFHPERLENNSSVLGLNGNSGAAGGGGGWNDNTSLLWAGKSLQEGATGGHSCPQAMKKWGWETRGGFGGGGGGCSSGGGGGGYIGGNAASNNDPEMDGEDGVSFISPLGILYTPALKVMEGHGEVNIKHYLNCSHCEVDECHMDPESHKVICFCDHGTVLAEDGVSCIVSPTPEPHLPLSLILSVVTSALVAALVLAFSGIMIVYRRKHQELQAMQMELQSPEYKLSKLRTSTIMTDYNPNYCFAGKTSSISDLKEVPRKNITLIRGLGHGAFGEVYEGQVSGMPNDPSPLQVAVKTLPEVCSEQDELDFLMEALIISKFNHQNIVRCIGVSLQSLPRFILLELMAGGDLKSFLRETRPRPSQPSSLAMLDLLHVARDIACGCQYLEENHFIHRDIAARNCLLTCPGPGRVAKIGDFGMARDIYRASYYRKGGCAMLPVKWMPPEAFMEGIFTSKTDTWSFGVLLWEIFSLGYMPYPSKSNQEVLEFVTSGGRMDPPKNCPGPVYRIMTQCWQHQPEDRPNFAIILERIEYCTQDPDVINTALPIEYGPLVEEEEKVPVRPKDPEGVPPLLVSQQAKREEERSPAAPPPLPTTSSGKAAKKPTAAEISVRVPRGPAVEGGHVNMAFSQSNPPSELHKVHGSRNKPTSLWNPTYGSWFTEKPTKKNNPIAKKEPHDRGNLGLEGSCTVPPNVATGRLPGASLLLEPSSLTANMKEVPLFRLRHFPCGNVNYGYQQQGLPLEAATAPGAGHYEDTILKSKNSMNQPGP
How it was run: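 Substrate phosphorylation by 30 ng/ml ALK (37° C, 15 min) on PLC-γ-coated wells is quantified via time-resolved europium fluorescence from an anti-phosphotyrosine antibody. Percent inhibition against log10 compound concentration yields IC50 by nonlinear regression.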

Row | SMILES | IC50 [1] | IC50 [2]
1 | O=C(NCCCN1CCOCC1)c1ccc(-c2cnc3c(c2)N(Cc2ccccc2)C(=O)CN3)cc1 [Example 14, 4-(1-Benzyl-2-oxo-1,2,3,4-tetrahydropyrido[2,3-b]pyrazin-7-yl)-N-(3-morpholin-4-yl-propyl)benzamide, trifluoroacetic acid salt] | > 100 µM | 10 to 100 µM
2 | CN(C)CCCCNC(=O)c1ccc(-c2cnc3c(c2)N(Cc2ccccc2)C(=O)CN3)cc1 [Example 15, 4-(1-Benzyl-2-oxo-1,2,3,4-tetrahydropyrido[2,3-b]pyrazin-7-yl)-N-(4-dimethylaminobutyl)benzamide, trifluoroacetic acid salt] | 10 to 100 µM | 1 to 10 µM
3 | O=C(c1ccc(-c2cnc3ncc(=O)n(Cc4ccccc4)c3c2)cc1)N1CCC(N2CCCC2)CC1 [Example 17, 1-Benzyl-7-[4-(4-(pyrrolidin-1-yl)piperidine-1-carbonyl)phenyl]-1H-pyrido[2,3-b]pyrazin-2-one, trifluoroacetic acid salt] | 10 to 100 µM | 10 to 100 µM
4 | O=C1CNc2ncc(-c3cccc(C(=O)N4CCC[C@H]4CN4CCCC4)c3)cc2N1Cc1ccccc1 [Example 18, S-1-Benzyl-7-[3-(2-[(pyrrolidin-1-yl)methyl]pyrrolidine-1-carbonyl)phenyl]-3,4-dihydro-1H-pyrido[2,3-b]pyrazin-2-one, trifluoroacetic acid salt] | 10 to 100 µM | 1 to 10 µM
5 | CN(C)CCNC(=O)c1cccc(-c2cnc3c(c2)N(Cc2ccccc2)C(=O)CN3)c1 [Example 19, 3-(1-Benzyl-2-oxo-1,2,3,4-tetrahydropyrido[2,3-b]pyrazin-7-yl)-N-(2-dimethylamino-ethyl)benzamide, trifluoroacetic acid salt] | 10 to 100 µM | 1 to 10 µM
6 | O=C(c1cccc(-c2cnc3c(c2)N(Cc2ccccc2)C(=O)CN3)c1)N1CCCC1 [Example 20, 1-Benzyl-7-[3-(pyrrolidine-1-carbonyl)phenyl]-3,4-dihydro-1H-pyrido[2,3-b]pyrazin-2-one] | 10 to 100 µM | 1 to 10 µM
7 | CCNC(=O)c1cccc(-c2cnc3c(c2)N(Cc2ccccc2)C(=O)CN3)c1 [Example 22, 3-(1-Benzyl-2-oxo-1,2,3,4-tetrahydropyrido[2,3-b]pyrazin-7-yl)-N-ethyl-benzamide] | > 100 µM | > 100 µM
8 | CS(=O)(=O)c1ccc(-c2cnc3c(c2)N(Cc2ccccc2)C(=O)CN3)cc1 [Example 24, 1-Benzyl-7-(4-methanesulfonyl-phenyl)-3,4-dihydro-1H-pyrido[2,3-b]pyrazin-2-one] | > 100 µM | 1 to 10 µM
9 | CN1CCN(C(=O)c2ccc(-c3cnc4c(c3)N(Cc3ccccc3)C(=O)CN4)cc2)CC1 [Example 25, 1-Benzyl-7-[4-(4-methylpiperazine-1-carbonyl)phenyl]-3,4-dihydro-1H-pyrido[2,3-b]pyrazin-2-one, trifluoroacetic acid salt] | 10 to 100 µM | 1 to 10 µM
10 | O=C(c1ccc(-c2cnc3c(c2)N(Cc2ccccc2)C(=O)CN3)cc1)N1CCC(N2CCCC2)CC1 [Example 26, 1-Benzyl-7-[4-(4-(pyrrolidin-1-yl)piperidine-1-carbonyl)phenyl]-3,4-dihydro-1H-pyrido[2,3-b]pyrazin-2-one, trifluoroacetic acid salt] | 10 to 100 µM | 1 to 10 µM
11 | CCOC(=O)c1ccc(-c2cnc3c(c2)N(Cc2ccccc2)C(=O)CN3)cn1 [Example 29, 5-(1-Benzyl-2-oxo-1,2,3,4-tetrahydropyrido[2,3-b]pyrazin-7-yl)pyridine-2-carboxylic acid ethyl ester] | 10 to 100 µM | 0.1 to 1 µM
12 | O=C(O)c1cccc(-c2cnc3c(c2)N(Cc2ccccc2)C(=O)CN3)c1 [Example 31, 3-(1-Benzyl-2-oxo-1,2,3,4-tetrahydropyrido[2,3-b]pyrazin-7-yl)benzoic acid] | 10 to 100 µM | > 100 µM
13 | c1ccc(CN2CCNc3ncccc32)cc1 [Example 32, 1-Benzyl-1,2,3,4-tetrahydropyrido[2,3-b]pyrazine] | > 100 µM | > 100 µM
14 | c1ccc(CN2CCNc3ncc(-c4cccnc4)cc32)cc1 [Example 34, 1-Benzyl-7-pyridin-3-yl-1,2,3,4-tetrahydropyrido[2,3-b]pyrazine] | 10 to 100 µM | 1 to 10 µM
15 | O=C1CNc2ncc(-c3ccc(NS(=O)(=O)CCN4CCCC4)cc3)cc2N1Cc1ccccc1 [Example 45, 2-Pyrrolidin-1-yl-ethanesulfonic acid[4-(1-benzyl-2-oxo-1,2,3,4-tetrahydropyrido[2,3-b]pyrazin-7-yl)phenyl]amide, trifluoroacetic acid salt] | > 100 µM | 1 to 10 µM
16 | O=C(c1ccccc1)N1CCNc2ncc(-c3ccc(NS(=O)(=O)CCN4CCCC4)cc3)cc21 [Example 46, 2-Pyrrolidin-1-yl-ethanesulfonic acid[4-(1-benzoyl-1,2,3,4-tetrahydropyrido[2,3-b]pyrazin-7-yl)phenyl]amide] | 10 to 100 µM | 10 to 100 µM
17 | CN1CCN(CCS(=O)(=O)Nc2ccc(-c3cnc4c(c3)N(C(=O)c3ccccc3)CCN4)cc2)CC1 [Example 47, 2-(4-Methylpiperazin-1-yl)-ethanesulfonic acid[4-(1-benzoyl-1,2,3,4-tetrahydropyrido[2,3-b]pyrazin-7-yl)phenyl]amide] | 10 to 100 µM | 10 to 100 µM
18 | O=C1CNc2ncc(-c3ccc(NS(=O)(=O)CCN4CCC[C@H]4CN4CCCC4)cc3)cc2N1Cc1cc(F)ccc1F [Example 49] | 10 to 100 µM | 0.1 to 1 µM
19 | CN1CCN(C(=O)c2ccc(-c3cnc4c(c3)N(C(=O)c3ccccc3)CCN4)cc2)CC1 [Example 54, {7-[4-(4-Methylpiperazine-1-carbonyl)phenyl]-3,4-dihydro-2H-pyrido[2,3-b]pyrazin-1-yl}phenylmethanone] | 10 to 100 µM | > 100 µM
20 | O=C1CNc2ncc(-c3ccc(NC(=O)N4CCC[C@H]4CN4CCCC4)cc3)cc2N1Cc1cc(F)ccc1F [Example 61, (S)-2-[(pyrrolidin-1-yl)methyl]pyrrolidine-1-carboxylic acid{4-[1-(2,5-difluorobenzyl)-2-oxo-1,2,3,4-tetrahydropyrido[2,3-b]pyrazin-7-yl]phenyl}-amide] | 1 to 10 µM | 0.1 to 1 µM
21 | O=C(c1ccc(-c2cnc3c(c2)N(Cc2cc(F)ccc2F)CCN3)cc1)N1CCOCC1 [Example 68, {4-[1-(2,5-Difluorobenzyl)-1,2,3,4-tetrahydropyrido[2,3-b]pyrazin-7-yl]phenyl}-morpholin-4-yl-methanone] | 1 to 10 µM | 0.1 to 1 µM
22 | CN1CCN(C(=O)c2cnc3c(c2)N(Cc2cc(F)ccc2F)CCN3)CC1 [Example 79, [1-(2,5-Difluorobenzyl)-1,2,3,4-tetrahydropyrido[2,3-b]pyrazin-7-yl]-(4-methylpiperazin-1-yl)methanone] | > 100 µM | 10 to 100 µM
23 | CN1CCN(CCNC(=O)c2cnc3c(c2)N(Cc2cc(F)ccc2F)CCN3)CC1 [Example 80, 1-(2,5-Difluorobenzyl)-1,2,3,4-tetrahydropyrido[2,3-b]pyrazine-7-carboxylic acid[2(4-methylpiperazin-1-yl)ethyl]amide] | > 100 µM | 10 to 100 µM
24 | O=C(c1ccc(-c2cnc3c(c2)N(Cc2cc(F)c(F)cc2F)CCN3)cc1)N1CCC[C@H]1CN1CCCC1 [Example 84, ((S)-2-((pyrrolidin-1-yl)methyl)pyrrolidin-1-yl)-{4-[1-(2,4,5-trifluorobenzyl)-1,2,3,4-tetrahydropyrido[2,3-b]pyrazin-7-yl]phenyl}-methanone] | 1 to 10 µM | 0.1 to 1 µM
25 | CN1CCN(C(=O)c2ccc(-c3cnc4c(c3)N(Cc3cc(F)c(F)cc3F)CCN4)cc2)CC1 [Example 86, (4-Methylpiperazin-1-yl)-{4-[1-(2,4,5-trifluorobenzyl)-1,2,3,4-tetrahydropyrido[2,3-b]pyrazin-7-yl]phenyl}-methanone] | 1 to 10 µM | 1 to 10 µM
26 | O=C(c1cc(F)ccc1F)N1CCNc2ncc(I)cc21 [Example 87, (2,5-Difluorophenyl)-(7-iodo-3,4-dihydro-2H-pyrido[2,3-b]pyrazin-1-yl)methanone] | > 100 µM | > 100 µM
27 | O=C(c1cc(F)ccc1F)N1CCNc2ncc(-c3ccc(C(=O)N4CCC[C@H]4CN4CCCC4)cc3)cc21 [Example 89, (2,5-Difluorophenyl)-{7-[4-((S)-2-[(pyrrolidin-1-yl)methyl]pyrrolidine-1-carbonyl)phenyl]-3,4-dihydro-2H-pyrido[2,3-b]pyrazin-1-yl}-methanone] | 10 to 100 µM | 10 to 100 µM
